The numbers were not newly measured in patent US8518371B2, “Hypoxia-selective, weakly basic 2-nitroimidazole delivery agents and methods of use thereof” (Natural Pharmacia International, Inc., priority 2006, dated 2013), which cites them from elsewhere.

The subject of one data set is animal models. The settings on record: in vivo.
The conditions of data set [1]: in vivo.
The conditions of data set [2]: escalating, rarely to.

Consider “disodium mercapto-closo-dodecaborate [BSH]”, for which the “safety and efficacy in animal models” value in the data set with animal models is “safe and efficacious”. For the same compound, the “retention times in tissues” value in data set [1] was “low”. The “selectivity for tumor cells” value in the data set on tumor cells is on record as “moderate”.
For `CC[C@]1(O)C[C@@H]2CN(CCc3c([nH]c4ccccc34)[C@@](C(=O)OC)(c3cc4c(cc3OC)N(C)[C@H]3[C@@](O)(C(=O)OC)[C@H](OC(C)=O)[C@]5(CC)C=CCN6CC[C@]43[C@@H]65)C2)C1` [vinblastine], the MTD in data set [2] is at most 18.5 mg/m^2.
As to `N[C@@H](Cc1ccc(B(O)O)cc1)C(=O)O` [BPA, L-4-dihydroxy-borylphenylalanine], the “safety and efficacy in animal models” value with animal models is “safe and efficacious”. Besides, the “retention times in tissues” value in data set [1] was “low”. In addition, in the data set on tumor cells, the “selectivity for tumor cells” value is “moderate”.
